These are literature values, as cited in patent US20070203026A1, “Methods for controlling bermudagrass, bermudagrass hybrids and other weedy monocot and dicot species” (TurfEcosystems, LLC, priority 2006, published 2007).

In one data set the test system is crested wheatgrass. The settings on record: saturated soil paste extract data.
For the next data set, the system named is tall fescue. Particulars: saturated soil paste extract data.
For another data set, the system named is perennial ryegrass. The settings on record: saturated soil paste extract data.
The subject of the next data set is bermudagrass. The settings on record: saturated soil paste extract data.
The subject of data set [1] is fairway crested wheatgrass. Particulars: saturated soil paste extract data.
The subject of another data set is seashore paspalum. The settings on record: ocean level chlorides.

For the compound `Cl` [chloride], the “maximum soil chloride concentration threshold” value in the data set with crested wheatgrass is “about 1050 ppm”; with tall fescue, “about 1400 ppm”; with perennial ryegrass, “about 1025 ppm”; in the data set with bermudagrass, “about 2450 ppm”; in data set [1], “about 2625 ppm”. For the same compound, the “chlorides withstood (salinity tolerance)” value with seashore paspalum is recorded as ~19,000 ppm.
